Molecular target: T1, vitrosamine synthase (VAS, Cro013448) (Catharanthus roseus, UniProt A0A0C5DR25)
T1 construct: N-terminal His6 tag (pOPINF) kept; E. coli SoluBL21; calculated 34469 Da; monomer in solution, dimer in crystal; modelled residues 7-299
Assay: X-ray crystal structure, […] Å
Assay type: binding
Settings: co-purified from E. coli as holoenzyme; crystals pH 4.0, 20 °C; active site, next to Ser167/Tyr223/Lys227

T1 sequence (A0A0C5DR25 entry or part of it): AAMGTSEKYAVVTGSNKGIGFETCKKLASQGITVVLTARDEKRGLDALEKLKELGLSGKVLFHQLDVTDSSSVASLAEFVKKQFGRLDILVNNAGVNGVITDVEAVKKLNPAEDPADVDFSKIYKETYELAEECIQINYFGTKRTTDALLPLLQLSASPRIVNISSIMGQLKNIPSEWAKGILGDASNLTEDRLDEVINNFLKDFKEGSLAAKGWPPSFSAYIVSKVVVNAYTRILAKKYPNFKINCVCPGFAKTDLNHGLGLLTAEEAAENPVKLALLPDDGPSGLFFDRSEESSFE

NC(=O)c1ccc[n+]([C@@H]2O[C@H](COP(=O)(O)OP(=O)(O)OC[C@H]3O[C@@H](n4cnc5c(N)ncnc54)[C@H](OP(=O)(O)O)[C@@H]3O)[C@@H](O)[C@H]2O)c1 [NADP+]
X-ray crystal structure, 1.55 Å: the apo enzyme active site also had a high occupancy of NADP^+
